This note sets out measurements from patent publication US20260297095A1, “NOVEL PYRROLOTRIAZINE DERIVATIVE AND USE THEREOF” (Pelemed Co., Ltd., priority 2024, published 2026).

Some results are limits rather than exact numbers.

One assay deals with YES1 kinase (Homo sapiens, UniProt P07947). Kind of assay: YES1 kinase inhibition, ADP Glo assay (Promega). It counts as biochemical. Particulars: for IC50: class symbols, read-out: YES1 enzyme, IC50; for YES1 kinase inhibition at 1 nM (in words) / inhibition at 0.001 µM: compound 1 nM; for inhibition at 0.001 µM: read-out: YES1 enzyme, % inhibition, 1 nM; for inhibition at 0.01 µM: compound 10 nM, read-out: YES1 enzyme, % inhibition, 10 nM; for inhibition at 0.1 µM: compound 100 nM, read-out: YES1 enzyme, % inhibition, 100 nM. The gist of the method: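 ADP-Glo luminescence after a 40 min room-temperature reaction of YES1 with ATP and substrate (buffer with MnCl2 and DTT; 10 min compound preincubation) was used as readout. Percent inhibition at 1, 10 and 100 nM compound was calculated relative to negative control after background subtraction, and IC50 values derived.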
YES1 kinase, sequence (P07947 whole entry): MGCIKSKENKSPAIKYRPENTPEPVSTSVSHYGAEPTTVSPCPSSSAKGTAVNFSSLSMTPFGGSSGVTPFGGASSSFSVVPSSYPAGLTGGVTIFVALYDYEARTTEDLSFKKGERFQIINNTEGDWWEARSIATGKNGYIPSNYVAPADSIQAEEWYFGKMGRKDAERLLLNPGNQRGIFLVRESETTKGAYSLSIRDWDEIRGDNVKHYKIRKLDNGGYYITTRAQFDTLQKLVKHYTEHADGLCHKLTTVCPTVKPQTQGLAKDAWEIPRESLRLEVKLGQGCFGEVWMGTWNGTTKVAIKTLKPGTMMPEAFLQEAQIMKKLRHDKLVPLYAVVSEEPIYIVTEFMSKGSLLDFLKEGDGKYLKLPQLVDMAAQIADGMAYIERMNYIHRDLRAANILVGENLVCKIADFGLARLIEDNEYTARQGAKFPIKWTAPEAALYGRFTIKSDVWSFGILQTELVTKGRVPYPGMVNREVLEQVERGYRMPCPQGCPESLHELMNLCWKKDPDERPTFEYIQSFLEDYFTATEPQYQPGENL
(ADP-Glo first removes unused ATP, then detects ADP through luciferase.)

Assay [1] relates to KYSE-70 esophageal cancer cell line. Kind of assay: Cell growth inhibition of KYSE-70 (Sulforhodamine B). It counts as cell-based. To be noted: Homo sapiens; KYSE-70, 72 hours; read-out: KYSE70 GI50. The procedure, abridged:
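KYSE-70 cells (YES1-amplified) in RPMI-1640 with 10% FBS were seeded 24 h before treatment with compound at 0.0046–10 µM final. After 72 h, cells were TCA-fixed and stained with sulforhodamine B, with absorbance read at 510 nm. GI50 was derived with a time-zero plate set to 0% and the vehicle control to 100%, in duplicate tests.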

Take `COc1cc(-c2c(C)c(N3CCC(N)CC3)n3ncnc(N)c23)ccc1NC(=O)OC(C)(C)C` [Example 74, tert-butyl (4-(4-amino-7-(4-aminopiperidin-1-yl)-6-methylpyrrolo[2,1-f][1,2,4]triazin-5-yl)-2-methoxyphenyl)carbamate]: on YES1 kinase, the IC50 (usually the concentration that gives 50% inhibition) was ≤ 100 nM; the “YES1 kinase inhibition at 1 nM (in words)” value (from here on “YES1 kinase inhibition”) was “could be inhibited even at a low concentration of 1 nM”; the inhibition – broadly, the change of the read-out against control, counted positive when it falls – at 0.001 µM turned out to be 43%; the inhibition at 0.01 µM worked out at 66%. In addition, in assay [1], the GI50 (as a rule, the concentration that inhibits growth by half) was ≤ 100 nM.

Turning to `COc1cc(-c2cc(-c3ccc(N(C)C)c(C)c3)n3ncnc(N)c23)ccc1NC(=O)OC(C)(C)C` [Example 3, tert-butyl (4-(4-amino-7-(4-(dimethylamino)-3-methylphenyl)pyrrolo[2,1-f][1,2,4]triazin-5-yl)-2-methoxyphenyl)carbamate], on YES1 kinase, the inhibition at 0.01 µM amounted to 44% and the inhibition at 0.1 µM amounted to 49%. Moreover, in assay [1], the concentration for 50% growth inhibition (GI50) is > 10000 nM.

For `COc1cc(-c2cc(N3CCC4(CC3)CNC4=O)n3ncnc(N)c23)ccc1NC(=O)OC(C)(C)C` [Example 55, tert-butyl (4-(4-amino-7-(1-oxo-2,7-diazaspiro[3.5]nonan-7-yl)pyrrolo[2,1-f][1,2,4]triazin-5-yl)-2-methoxyphenyl)carbamate], at YES1 kinase, the inhibition at 0.01 µM turned out to be 40% and the inhibition at 0.1 µM was determined as 76%. The GI50 in assay [1] is ≤ 100 nM.

Turning to `COc1cc(-c2cc(N3CC[C@@H](N(C)C)[C@@H](F)C3)n3ncnc(N)c23)ccc1NC(=O)OC(C)(C)C` [Example 30, tert-butyl (4-(4-amino-7-((3S,4R)-4-(dimethylamino)-3-fluoropiperidin-1-yl)pyrrolo[2,1-f][1,2,4]triazin-5-yl)-2-methoxyphenyl)carbamate], on YES1 kinase, the inhibition at 0.01 µM was 73% and the inhibition at 0.1 µM was 94%. Besides, the concentration for 50% growth inhibition (GI50) in assay [1] is ≤ 100 nM.

Regarding `COc1cc(-c2cc(N3CCC4(CC3)CNC(=O)C4)n3ncnc(N)c23)ccc1NC(=O)OC(C)(C)C` [Example 52, tert-butyl (4-(4-amino-7-(3-oxo-2,8-diazaspiro[4.5]decan-8-yl)pyrrolo[2,1-f][1,2,4]triazin-5-yl)-2-methoxyphenyl)carbamate], at YES1 kinase, the IC50 was ≤ 100 nM, the inhibition at 0.01 µM was 60% and the inhibition at 0.1 µM is 90%. Further, the GI50 in assay [1] was in the range of 100 to 1000 nM.

`CN[C@@H]1CCN(c2cc(-c3ccc(NC(=O)OC(C)(C)C)c(OC)c3)c3c(N)ncnn23)C[C@@H]1F` [Example 87, tert-butyl (4-(4-amino-7-((3S,4R)-3-fluoro-4-(methylamino)piperidin-1-yl)pyrrolo[2,1-f][1,2,4]triazin-5-yl)-2-methoxyphenyl)carbamate]: at YES1 kinase, the IC50 was ≤ 100 nM, the inhibition at 0.01 µM is 61% and the inhibition at 0.1 µM turned out to be 80%. Besides, the GI50 in assay [1] is ≤ 100 nM.

For the molecule `COc1cc(-c2c(F)c(N3CCC(N)CC3)n3ncnc(N)c23)ccc1NC(=O)OC(C)(C)C` [Example 127, tert-butyl (4-(4-amino-7-(4-aminopiperidin-1-yl)-6-fluoropyrrolo[2,1-f][1,2,4]triazin-5-yl)-2-methoxyphenyl)carbamate], at YES1 kinase, the IC50 was ≤ 100 nM, the inhibition at 0.01 µM was 67% and the inhibition at 0.1 µM worked out at 88%. Besides, in assay [1], the GI50 is ≤ 100 nM.

Turning to `COc1cc(-c2cc(N3CCC4(CC3)CC(=O)N(C)C4)n3ncnc(N)c23)ccc1NC(=O)OC(C)(C)C` [Example 27, tert-butyl (4-(4-amino-7-(2-methyl-3-oxo-2,8-diazaspiro[4.5]decan-8-yl)pyrrolo[2,1-f][1,2,4]triazin-5-yl)-2-methoxyphenyl)carbamate], on YES1 kinase, the inhibition at 0.01 µM is 59% and the inhibition at 0.1 µM was found to be 74%. Moreover, the GI50 in assay [1] fell in the range of 1000 to 10000 nM.

Consider `COc1cc(-c2cc(N3CCC(CCN)CC3)n3ncnc(N)c23)ccc1NC(=O)OC(C)(C)C` [Example 107, tert-butyl (4-(4-amino-7-(4-(2-aminoethyl)piperidin-1-yl)pyrrolo[2,1-f][1,2,4]triazin-5-yl)-2-methoxyphenyl)carbamate], for which, on YES1 kinase, the IC50 was ≤ 100 nM, the inhibition at 0.001 µM worked out at 38% and the inhibition at 0.01 µM is 52%. Moreover, the GI50 in assay [1] lay within 100 to 1000 nM.

For the molecule `COc1cc(-c2cc(N3CCC4NCCC4C3)n3ncnc(N)c23)ccc1NC(=O)OC(C)(C)C` (stereo not drawn) [Example 25, tert-butyl (4-(4-amino-7-(octahydro-5H-pyrrolo[3,2-c]pyridin-5-yl)pyrrolo[2,1-f][1,2,4]triazin-5-yl)-2-methoxyphenyl)carbamate], at YES1 kinase, the inhibition at 0.01 µM is 28% and the inhibition at 0.1 µM is 76%. The GI50 in assay [1] was 100 to 1000 nM.

Take `COc1cc(-c2cc(NC3CCNCC3)n3ncnc(N)c23)ccc1NC(=O)OC(C)(C)C` [Example 120, tert-butyl (4-(4-amino-7-(piperidin-4-ylamino)pyrrolo[2,1-f][1,2,4]triazin-5-yl)-2-methoxyphenyl)carbamate]: on YES1 kinase, the inhibition at 0.01 µM came to 40% and the inhibition at 0.1 µM came to 78%. For the same molecule, in assay [1], the GI50 was 100 to 1000 nM.

For `COc1cc(-c2cc(CCN3CCC(N)CC3)n3ncnc(N)c23)ccc1NC(=O)OC(C)(C)C` [Example 100, tert-butyl (4-(4-amino-7-(2-(4-aminopiperidin-1-yl)ethyl)pyrrolo[2,1-f][1,2,4]triazin-5-yl)-2-methoxyphenyl)carbamate], on YES1 kinase, the inhibition at 0.01 µM was 70% and the inhibition at 0.1 µM was determined as 88%. The GI50 in assay [1] was ≤ 100 nM.

`COc1cc(-c2cc(N3CCC4(CCN(C)CC4)C3)n3ncnc(N)c23)ccc1NC(=O)OC(C)(C)C` [Example 36, tert-butyl (4-(4-amino-7-(8-methyl-2,8-diazaspiro[4.5]decan-2-yl)pyrrolo[2,1-f][1,2,4]triazin-5-yl)-2-methoxyphenyl)carbamate]: at YES1 kinase, the inhibition at 0.01 µM was 36% and the inhibition at 0.1 µM was determined as 78%. In addition, the GI50 in assay [1] lay within 100 to 1000 nM.

As for `COc1cc(-c2cc(N[C@H]3C[C@H](N)C3)n3ncnc(N)c23)ccc1NC(=O)OC(C)(C)C` [Example 119, tert-butyl (4-(4-amino-7-(((1r,3r)-3-aminocyclobutyl)amino)pyrrolo[2,1-f][1,2,4]triazin-5-yl)-2-methoxyphenyl)carbamate], on YES1 kinase, the “YES1 kinase inhibition” value is listed as “could be inhibited even at a low concentration of 1 nM”, the inhibition at 0.001 µM is 24% and the inhibition at 0.01 µM was 55%. In addition, the GI50 in assay [1] was in the range of 100 to 1000 nM.

With `CNCCC1CCN(c2cc(-c3ccc(NC(=O)OC(C)(C)C)c(OC)c3)c3c(N)ncnn23)CC1` [Example 108, tert-butyl (4-(4-amino-7-(4-(2-(methylamino)ethyl)piperidin-1-yl)pyrrolo[2,1-f][1,2,4]triazin-5-yl)-2-methoxyphenyl)carbamate], on YES1 kinase, the IC50 was ≤ 100 nM, the inhibition at 0.001 µM amounted to 38% and the inhibition at 0.01 µM is 52%. Besides, the GI50 in assay [1] was ≤ 100 nM.

Regarding `COc1cc(-c2cc(N3CCC(O)CC3)n3ncnc(N)c23)ccc1NC(=O)OC(C)(C)C` [Example 90, tert-butyl (4-(4-amino-7-(4-hydroxypiperidin-1-yl)pyrrolo[2,1-f][1,2,4]triazin-5-yl)-2-methoxyphenyl)carbamate], on YES1 kinase, the “YES1 kinase inhibition” value is given as “could be inhibited even at a low concentration of 1 nM”, the inhibition at 0.001 µM stood at 12% and the inhibition at 0.01 µM was determined as 47%. Moreover, the GI50 in assay [1] is 100 to 1000 nM.

In the case of `COc1cc(-c2cc(N3CCC4(CCCN4)CC3)n3ncnc(N)c23)ccc1NC(=O)OC(C)(C)C` [Example 23, tert-butyl (4-(4-amino-7-(1,8-diazaspiro[4.5]decan-8-yl)pyrrolo[2,1-f][1,2,4]triazin-5-yl)-2-methoxyphenyl)carbamate], on YES1 kinase, the inhibition at 0.01 µM was 58% and the inhibition at 0.1 µM was 87%. The GI50 in assay [1] was ≤ 100 nM.

For `COc1cc(-c2cc(N3CCC(N)CC3)n3ncnc(N)c23)ccc1NC(=O)OC(C)(C)CF` [Example 65, 1-fluoro-2-methylpropan-2-yl (4-(4-amino-7-(4-aminopiperidin-1-yl)pyrrolo[2,1-f][1,2,4]triazin-5-yl)-2-methoxyphenyl)carbamate], at YES1 kinase, the IC50 was ≤ 100 nM. Besides, the GI50 in assay [1] was 100 to 1000 nM.

For `COc1cc(-c2cc(N3CCC4C(CCN4C)C3)n3ncnc(N)c23)ccc1NC(=O)OC(C)(C)C` (stereo not drawn) [Example 26, tert-butyl (4-(4-amino-7-(1-methyloctahydro-5H-pyrrolo[3,2-c]pyridin-5-yl)pyrrolo[2,1-f][1,2,4]triazin-5-yl)-2-methoxyphenyl)carbamate], on YES1 kinase, the inhibition at 0.01 µM was 30% and the inhibition at 0.1 µM stood at 69%. The GI50 in assay [1] was in the range of 1000 to 10000 nM.

On to `COc1cc(-c2cc(N3CC[C@H](N(C)C)C3)n3ncnc(N)c23)ccc1NC(=O)OC(C)(C)C` [Example 11, tert-butyl (S)-(4-(4-amino-7-(3-(dimethylamino)pyrrolidin-1-yl)pyrrolo[2,1-f][1,2,4]triazin-5-yl)-2-methoxyphenyl)carbamate], for which, at YES1 kinase, the inhibition at 0.01 µM was 21% and the inhibition at 0.1 µM came to 44%. In assay [1], the GI50 lay within 100 to 1000 nM.

As to `CCNC1CCN(c2cc(-c3ccc(NC(=O)OC(C)(C)C)c(OC)c3)c3c(N)ncnn23)CC1` [Example 92, tert-butyl (4-(4-amino-7-(4-(ethylamino)piperidin-1-yl)pyrrolo[2,1-f][1,2,4]triazin-5-yl)-2-methoxyphenyl)carbamate], on YES1 kinase, the IC50 is ≤ 100 nM, the inhibition at 0.01 µM turned out to be 66% and the inhibition at 0.1 µM came out at 81%. Besides, the GI50 in assay [1] fell in the range of 100 to 1000 nM.
